Here are results for 20 compounds from patent publication US20130096088A1, “Inhibitors of Protein Tyrosine Kinase Activity” (METHYLGENE INC., priority 2011, published 2013).

Molecules are shown by their SMILES.

For one experiment, the target named is T1, VEGFR2 (KDR) (Homo sapiens, UniProt P35968).
T1 construct: made in house; host or cells: Sf9 cells (Spodoptera frugiperda), baculovirus
Kind of experiment: In vitro receptor tyrosine kinase assay (VEGF receptor KDR), DELFIA. As to conditions: recombinant GST-VEGFR2 806-1356, ATP 0.6 uM; read-out: VEGFR IC50UM. In kind it is biochemical. From the text: In Vitro Receptor Tyrosine Kinase Assay (VEGF Receptor KDR)
This test measures the ability of compounds to inhibit the enzymatic activity of recombinant human VEGF receptor enzymatic activity.
A 1.6-kb cDNA corresponding to the catalytic domain of VEGFR2 (KDR) (Genbank accession number AF035121 amino acid 806 to 1356) is cloned into the Pst I site of the pDEST20 Gateway vector (Invitrogen) for the production of a GST-tagged version of that enzyme. This construct is used to generate recombinant baculovirus using the Bac-to-Bac™ system according to the manufacturer's instructions (Invitrogen).
The GST-VEGFR2806-1356 protein is expressed in Sf9 cells (Spodoptera frugiperda) upon infection with recombinant baculovirus construct. Briefly, Sf9 cells grown in suspension and maintained in serum-free medium (Sf900 II supplemented with gentamycin) at a cell density of about 2×10^6 cells/ml are infected with the above-mentioned viruses at a multiplicity of infection (MOI) of 0.1 during 72 hours at 27° C. with agitation at 120 rpm on a rotary shaker. Infected cells are harvested by centrifugation at 398 g for 15 min. Cell pellets are frozen at −80° C. until purification is performed.
All steps described in cell extraction and purification are performed at 4° C. Frozen Sf9 cell pellets infected with the GST-VEGFR2806-1356 recombinant baculovirus are thawed and gently resuspended in Buffer A (PBS pH 7.3 supplemented with 1 μg/ml pepstatin, 2 μg/ml Aprotinin and leupeptin, 50 μg/ml PMSF, 50 μg/ml TLCK and 10 μM E64 and 0.5 mM DTT) using 3 ml of buffer per gram of cells. Suspension is Dounce homogenized and 1% Triton X-100 is added to the homogenate after which it is centrifuged at 22500 g, 30 min., 4° C. The supernatant (cell extract) is used as starting material for purification of GST-VEGFR2806-1356.
The supernatant is loaded onto a GST-agarose column (Sigma) equilibrated with PBS pH 7.3. Following a four column volume (CV) wash with PBS pH 7.3+1% Triton X-100 and 4 CV wash with buffer B (50 mM Tris pH 8.0, 20% glycerol and 100 mM NaCl), bound proteins are step eluted with 5 CV of buffer B supplemented with 5 mM DTT and 15 mM glutathion. GST-VEGFR2806-1356 enriched fractions from this chromatography step are pooled based on U.V. trace i.e. fractions with high O.D.280. Final GST-VEGFR2806-1356 protein preparations concentrations are about 0.7 mg/ml with purity approximating 70%. Purified GST-VEGFR2806-1356 protein stocks are aliquoted and frozen at −80° C. prior to use in enzymatic assay.
Inhibition of VEGFR/KDR is measured in a DELFIA™ assay (Perkin Elmer). The substrate poly(Glu4,Tyr) is immobilized onto black high-binding polystyrene 96-well plates. The coated plates are washed and stored at 4° C. During the assay, the enzyme is pre-incubated with inhibitor and Mg-ATP on ice in polypropylene 96-well plates for 4 minutes, and then transferred to the coated plates. The subsequent kinase reaction takes place at 30° C. for 10-30 minutes. ATP concentrations in the assay are 0.6 uM for VEGFR/KDR (2× the Km). Enzyme concentration is 5 nM. After incubation, the kinase reactions are quenched with EDTA and the plates are washed. Phosphorylated product is detected by incubation with Europium-labeled anti-phosphotyrosine MoAb. After washing the plates, bound MoAb is detected by time-resolved fluorescence in a Gemini SpectraMax reader (Molecular Devices). Compounds are evaluated over a range of concentrations, and IC50 values (concentration of compounds giving 50% inhibition of enzymatic activity) are determined.

In experiment [1] the test system is laser-induced choroidal neovascularization (CNV). The experiment in a line: In vivo choroidal neovascularization (CNV) model. Further details: species or system rat. As to conditions: Rattus norvegicus, 240 h; Brown-Norway rats, dose 3 nmol/eye, injection on Day 3, CNV area on Day 10; read-out: Inhibition of CNV Progression (%). From the text: In Vivo Choroidal Neovascularization (CNV) Model This test measures the capacity of compounds to inhibit CNV progression. CNV is the main cause of severe vision loss in patients suffering from age-related macular degeneration (AMD). Male Brown-Norway rats (Charles River Japan Co., Ltd.) were used in these studies. Rats were anesthetized by intraperitoneal injection of pentobarbital, and the right pupil was dilated with 0.5% tropicamide and 0.5% phenylephrine hydrochloride. The right eye received 6 laser burns between retinal vessels using a slit lamp delivery system of Green laser Photocoagulator (Nidex Inc., Japan), and microscope slide glass with 10 mg/mL hyaluronic acid (SIGMA) used as a contact lens. The laser power was 200 mW for 0.1 second and spot diameter was 100 μm. At the time of laser burn, bubble production was observed; which is an indication of rupture of Bruch's membrane which is important for CNV generation. After animals were anesthetized, and the right pupil dilated (as mentioned above), the right eye of the animal received the compound or vehicle by an injection (3 μL/eye) at doses of 3 or 10 nmol/eye on Day 3. The compounds were dissolved or suspended in CBS, PBS, or other adequate vehicles before injection. On Day 10, the animals were anesthetized with ether, and high molecular weight fluorescein isothiocyanate (FITC)-dextran (SIGMA, 2×10^6 MW) was injected via a tail vein (20 mg/rat). About 30 min after FITC-dextran injection, animals were euthanized by ether or carbon dioxide, and the eyes were removed and fixed with 10% formaline neutral buffer solution. After over 1 hour of fixation, RPE-choroid-sclera flat mounts were obtained by removing cornea, lens and retina from the eyeballs. The flat mounts were mounted in 50% glycerol on a microscope slide, and the portion burned by laser was photographed using a fluorescence microscope (Nikon Corporation, excitation filter: 465-495 nm, absorption filter: 515-555 nm). The CNV area was obtained by measurement of hyper-fluorescence area observed on the photograph using Scion image. The average CNV area of 6 burns was used as an individual value of CNV area, and the average CNV area of compound treated group was compared with that of the vehicle-treated group.

T1 sequence (P35968 806-1356): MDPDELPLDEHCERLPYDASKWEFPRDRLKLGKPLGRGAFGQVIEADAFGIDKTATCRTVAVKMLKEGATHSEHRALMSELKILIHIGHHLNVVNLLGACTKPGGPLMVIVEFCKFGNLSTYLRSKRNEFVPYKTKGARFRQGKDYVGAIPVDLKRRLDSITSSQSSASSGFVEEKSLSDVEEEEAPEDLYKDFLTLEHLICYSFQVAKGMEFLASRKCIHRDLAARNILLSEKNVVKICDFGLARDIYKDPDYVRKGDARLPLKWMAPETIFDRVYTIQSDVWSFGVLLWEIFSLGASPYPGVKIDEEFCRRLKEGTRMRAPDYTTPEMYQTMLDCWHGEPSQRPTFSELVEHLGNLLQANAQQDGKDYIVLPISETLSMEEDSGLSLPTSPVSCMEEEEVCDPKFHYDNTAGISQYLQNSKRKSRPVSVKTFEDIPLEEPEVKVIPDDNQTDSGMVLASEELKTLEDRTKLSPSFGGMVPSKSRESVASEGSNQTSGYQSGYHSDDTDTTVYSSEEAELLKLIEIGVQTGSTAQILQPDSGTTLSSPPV

For `O=C(Nc1ccc(Oc2ccnc3cc(-c4ccc(CN5CCOCCOCCOCCOCCOCC5)cn4)sc23)c(F)c1)NC1CC1` [Compound 8, 1-(4-(2-(5-((1,4,7,10,13-Pentaoxa-16-azacyclooctadecan-16-yl)methyl)pyridin-2-yl)thieno[3,2-b]pyridin-7-yloxy)-3-fluorophenyl)-3-cyclopropylurea], the IC50 on VEGFR2 (KDR) is 13 nM.
Take `CC(C)[C@H](N)C(=O)N[C@H](C(=O)OCC(=O)N1CCN(Cc2ccc(-c3cc4nccc(Oc5ccc(NC(=O)NC6CC6)cc5F)c4s3)nc2)CC1)C(C)C` [Compound 12, (S)-2-(4-((6-(7-(4-(3-Cyclopropylureido)-2-fluorophenoxy)thieno[3,2-b]pyridin-2-yl)pyridin-3-yl)methyl)piperazin-1-yl)-2-oxoethyl 2-((S)-2-amino-3-methylbutanamido)-3-methylbutanoate]: the inhibition in vivo at 3 nmol/eye in experiment [1] is 47%. Also, the IC50 at VEGFR2 (KDR) was 13 nM.
On the same counts, the results for `CC(C)[C@H](NC(=O)CN)C(=O)OCC(=O)N1CCN(Cc2ccc(-c3cc4nccc(Oc5ccc(NC(=O)NC6CC6)cc5F)c4s3)nc2)CC1` [Compound 13] are 41.6% and 10 nM.
On the same counts, the results for `COCCOCCOCCOCCC(=O)OCC(=O)N1CCN(Cc2ccc(-c3cc4nccc(Oc5ccc(NC(=O)NC6CC6)cc5F)c4s3)nc2)CC1` [Compound 18] are 42.9% and 6 nM.
Take `COCCOCCOCCOCCOCCC(=O)OCC(=O)N1CCN(Cc2ccc(-c3cc4nccc(Oc5ccc(NC(=O)NC6CC6)cc5F)c4s3)nc2)CC1` [Compound 19]: the IC50 at VEGFR2 (KDR) came to 20 nM.
On the same count and under the same terms, the value for `COCCOCCOCCOCCNC1CCN(Cc2ccc(-c3cc4nccc(Oc5ccc(NC(=O)NC6CC6)cc5F)c4s3)nc2)CC1` [Compound 22, 1-(4-(2-(5-((4-(2,5,8,11-Tetraoxamidecan-13-ylamino)piperidin-1-yl)methyl)pyridin-2-yl)thieno[3,2-b]pyridin-7-yloxy)-3-fluorophenyl)-3-cyclopropylurea] was 13 nM.
`CCNC(=O)N(CCOCCOCCOCCOC)C1CCN(Cc2ccc(-c3cc4nccc(Oc5ccc(NC(=O)NC6CC6)cc5F)c4s3)nc2)CC1` [Compound 23, 1-(4-(2-(5-((4-Ethylaminocarbonyl-(2,5,8,11-tetraoxamidecan-13-ylamino)piperidin-1-yl)methyl)pyridin-2-yl)thieno[3,2-b]pyridin-7-yloxy)-3-fluorophenyl)-3-cyclopropylurea]: in experiment [1], the inhibition in vivo at 3 nmol/eye worked out at 44.2%. Further, the IC50 on VEGFR2 (KDR) was found to be 18 nM.
On the same counts, the results for `COCCOCCOCCOCCN(C(=O)CO)C1CCN(Cc2ccc(-c3cc4nccc(Oc5ccc(NC(=O)NC6CC6)cc5F)c4s3)nc2)CC1` [Compound 24] are 28.9% and 15 nM.
On the same counts, the results for `COCCOCCOCCOCCN(C(=O)C(F)(F)F)C1CCN(Cc2ccc(-c3cc4nccc(Oc5ccc(NC(=O)NC6CC6)cc5F)c4s3)nc2)CC1` [Compound 25] are 20.9% and 53 nM.
For the compound `COCCOCCOCCOCCN(C1CCN(Cc2ccc(-c3cc4nccc(Oc5ccc(NC(=O)NC6CC6)cc5F)c4s3)nc2)CC1)S(C)(=O)=O` [Compound 26], the IC50 on VEGFR2 (KDR) came to 13 nM.
Still for that read-out and setting: under `COCCOCCOCCOCCOCCn1cc(-c2cc3nccc(Oc4ccc(NC(=O)NC5CC5)cc4F)c3s2)nn1` [Compound 33, 1-(4-(2-(1-(2,5,8,11,14-Pentaoxahexadecan-16-yl)-1H-1,2,3-triazol-4-yl)thieno[3,2-b]pyridin-7-yloxy)-3-fluorophenyl)-3-cyclopropylurea] stands 107 nM; under `COCCOCCOCCOCCOc1ccccc1NCc1ccc(-c2cc3nccc(Oc4ccc(NC(=O)NC5CC5)cc4F)c3s2)nc1` [Compound 38, 1-(4-(2-(5-((2-(2,5,8,11-Tetraoxamidecan-13-yloxy)phenylamino)methyl)pyridin-2-yl)thieno[3,2-b]pyridin-7-yloxy)-3-fluorophenyl)-3-cyclopropylurea], 24 nM.
The same measure, in the same setting: the value for `COCCOCCOCCOCCOc1cccc(NCc2ccc(-c3cc4nccc(Oc5ccc(NC(=O)NC6CC6)cc5F)c4s3)nc2)c1` [Compound 40] was 24 nM; that for `COCCOCCOCC(=O)N1CC(N(CC(=O)O)Cc2ccc(-c3cc4nccc(Oc5ccc(NC(=O)NC6CC6)cc5F)c4s3)nc2)C1` [Compound 45, 2-(((6-(7-(4-(3-Cyclopropylureido)-2-fluorophenoxy)thieno[3,2-b]pyridin-2-yl)pyridin-3-yl)methyl)(1-(2-(2-(2-methoxyethoxy)ethoxy)acetyl)azetidin-3-yl)amino)acetic acid] was 3 nM.
Take `COCCOCCOCCOCC(=O)N1CCN(Cc2ccc(-c3cc4nccc(Oc5ccc(NC(=O)NC6CC6)cc5F)c4s3)nc2)CC1` [Compound 47]: at VEGFR2 (KDR), the IC50 was determined as 12 nM.
Regarding `COCCOCCOCCOCCOCC(=O)N1CCN(Cc2ccc(-c3cc4nccc(Oc5ccc(NC(=O)NC6CC6)cc5F)c4s3)nc2)CC1` [Compound 48], at VEGFR2 (KDR), the IC50 is 13 nM.
The same measure, in the same setting: the value for `COCCOCCOCCOCCOCCOC(=O)N1CCN(Cc2ccc(-c3cc4nccc(Oc5ccc(NC(=O)NC6CC6)cc5F)c4s3)nc2)CC1` [Compound 52] was 13 nM.
Same read-out and setting: under `COCCOCCOCCNC(=O)N1CCN(Cc2ccc(-c3cc4nccc(Oc5ccc(NC(=O)NC6CC6)cc5F)c4s3)nc2)CC1` [Compound 54, 4-((6-(7-(4-(3-Cyclopropylureido)-2-fluorophenoxy)thieno[3,2-b]pyridin-2-yl)pyridin-3-yl)methyl)-N-(2-(2-(2-methoxyethoxy)ethoxy)ethyl)piperazine-1-carboxamide] stands 2 nM; under `COCCOCCOCCOCCNC(=O)N1CCN(Cc2ccc(-c3cc4nccc(Oc5ccc(NC(=O)NC6CC6)cc5F)c4s3)nc2)CC1` [Compound 55], 2 nM; under `COCCOCCOCCOCCOCCNC(=O)N1CCN(Cc2ccc(-c3cc4nccc(Oc5ccc(NC(=O)NC6CC6)cc5F)c4s3)nc2)CC1` [Compound 56], 2 nM.
